Measured values reported in PubChem BioAssay AID330 (DTP/NCI, 2004).
“And” between values parts separate entries of the source, which are not always exact repeats. Equal values may be shown once. Inconclusive results and toxic doses are left out.

Tested on: P388 leukemia ip, CD2F1 mice, survival T/C
Test: NCI In Vivo Anticancer Drug Screen. Data for tumor model P388 Leukemia (intraperitoneal) in CD2F1 (CDF1) mice
Conditions: endpoint: median survival time, higher = longer survival
In short: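 Mice carrying the transplanted tumor received test compound or vehicle. Survival was recorded in each group, and the value is the treated-group measurement divided by that of the vehicle-treated control group.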

[1] = dose: 12.5 mg/kg/injection, schedule: Q01DX009 (ip), vehicle: saline with Tween-80
[2] = dose: 6.25 mg/kg/injection, schedule: Q01DX005 (ip), vehicle: Klucel (hydroxypropylcellulose) (HPC)
[3] = dose: 12.5 mg/kg/injection, schedule: Q01DX005 (ip), vehicle: Klucel (hydroxypropylcellulose) (HPC)
[4] = dose: 50.0 mg/kg/injection, schedule: Q01DX005 (ip), vehicle: Klucel (hydroxypropylcellulose) (HPC)
[5] = dose: 50.0 mg/kg/injection, schedule: Q01DX005 (ip), vehicle: saline with Tween-80
[6] = dose: 100.0 mg/kg/injection, schedule: Q01DX005 (ip), vehicle: saline with Tween-80
[7] = dose: 200.0 mg/kg/injection, schedule: Q01DX005 (ip), vehicle: saline with Tween-80
[8] = dose: 60.0 mg/kg/injection, schedule: Q01DX005 (ip), vehicle: Klucel (hydroxypropylcellulose) (HPC)
[9] = dose: 120.0 mg/kg/injection, schedule: Q01DX005 (ip), vehicle: Klucel (hydroxypropylcellulose) (HPC)
[10] = dose: 240.0 mg/kg/injection, schedule: Q01DX005 (ip), vehicle: Klucel (hydroxypropylcellulose) (HPC)
[11] = dose: 100.0 mg/kg/injection, schedule: Q01DX005 (ip), vehicle: Klucel (hydroxypropylcellulose) (HPC)
[12] = dose: 200.0 mg/kg/injection, schedule: Q01DX005 (ip), vehicle: Klucel (hydroxypropylcellulose) (HPC)
[13] = dose: 100.0 mg/kg/injection, schedule: Q01DX009 (ip), vehicle: saline with Tween-80
[14] = dose: 200.0 mg/kg/injection, schedule: Q01DX009 (ip), vehicle: saline with Tween-80
[15] = dose: 50.0 mg/kg/injection, schedule: Q01DX009 (ip), vehicle: saline with Tween-80
[16] = dose: 60.0 mg/kg/injection, schedule: Q01DX005 (ip), vehicle: saline with Tween-80
[17] = dose: 120.0 mg/kg/injection, schedule: Q01DX005 (ip), vehicle: saline with Tween-80
[18] = dose: 100.0 mg/kg/injection, schedule: Q04DX002 (ip), vehicle: Klucel (hydroxypropylcellulose) (HPC)
[19] = dose: 200.0 mg/kg/injection, schedule: Q04DX002 (ip), vehicle: Klucel (hydroxypropylcellulose) (HPC)
[20] = dose: 400.0 mg/kg/injection, schedule: Q04DX002 (ip), vehicle: Klucel (hydroxypropylcellulose) (HPC)
[21] = dose: 50.0 mg/kg/injection, schedule: Q01DX009 (ip), vehicle: saline
[22] = dose: 100.0 mg/kg/injection, schedule: Q01DX009 (ip), vehicle: saline
[23] = dose: 200.0 mg/kg/injection, schedule: Q01DX009 (ip), vehicle: saline

O[C@H](c1cc(C(F)(F)F)nc2c(C(F)(F)F)cccc12)[C@@H]1CCCCN1
T/C (dose: 3.13 mg/kg/injection, schedule: Q01DX009 (ip), vehicle: saline with Tween-80): 109 % of control | T/C (dose: 6.25 mg/kg/injection, schedule: Q01DX009 (ip), vehicle: saline with Tween-80): 102 % of control | T/C [1]: 116 % of control | T/C (dose: 25.0 mg/kg/injection, schedule: Q01DX009 (ip), vehicle: saline with Tween-80): 106 % of control

Nc1c(-c2ccc(C3=NCCN3)cc2)[nH]c2cc(C3=NCCN3)ccc12
T/C [2]: 100 % of control | T/C [3]: 118 % of control | T/C [4]: 196 % of control

Cn1c(-c2nc3ccccc3n2C)nc2ccccc21
T/C [5]: 102 % of control | T/C [6]: 98 % of control | T/C [7]: 102 % of control

CN1CCN(Cc2ccc(Nc3ccccc3)cc2)CC1
T/C [8]: 105 % of control | T/C [9]: 108 % of control | T/C [10]: 98 % of control

[N-]=[N+]=NC(=O)Nc1ccccc1F
T/C (dose: 3.75 mg/kg/injection, schedule: Q01DX005 (ip), vehicle: Klucel (hydroxypropylcellulose) (HPC)): 96 % of control | T/C (dose: 7.5 mg/kg/injection, schedule: Q01DX005 (ip), vehicle: Klucel (hydroxypropylcellulose) (HPC)): 90 % of control and 97 % of control | T/C (dose: 15.0 mg/kg/injection, schedule: Q01DX005 (ip), vehicle: Klucel (hydroxypropylcellulose) (HPC)): 104 % of control

Cc1ccc(N=NC2Sc3nc4ccccc4n3C2=O)cc1 (stereo not drawn)
T/C [8]: 101 % of control | T/C [9]: 97 % of control | T/C [10]: 88 % of control

COc1cc(C2c3cc(O)c(OC)cc3CC3C(=O)OCC32)ccc1O (stereo not drawn)
T/C [4]: 95 % of control | T/C [11]: 95 % of control | T/C [12]: 90 % of control

CNC(=S)ON1CCCCC1
T/C [13]: 111 % of control | T/C [14]: 108 % of control

O=C(O)C(O)C(O)C(=O)O.[Co+3].[NH-]CC[NH-].[NH-]CC[NH-].[NH-]CC[NH-] (stereo not drawn)
T/C [5]: 104 % of control | T/C [6]: 100 % of control

CCO/C(=N/S(C)(=O)=O)NO
T/C [4]: 102 % of control | T/C [11]: 106 % of control | T/C [12]: 102 % of control

CCCCCCCCCCCCC1(O)OC(=O)C(C)=C1C (stereo not drawn)
T/C (dose: 12.5 mg/kg/injection, schedule: Q04DX003 (ip), vehicle: saline with Tween-80): 108 % of control | T/C (dose: 25.0 mg/kg/injection, schedule: Q04DX003 (ip), vehicle: saline with Tween-80): 102 % of control | T/C (dose: 50.0 mg/kg/injection, schedule: Q04DX003 (ip), vehicle: saline with Tween-80): 106 % of control

CC(C)(C)C(=O)CC(Cc1nccc2ccccc12)c1ccccc1 (stereo not drawn)
T/C [15]: 106 % of control | T/C [13]: 104 % of control | T/C [14]: 103 % of control

O=C(O)C(=O)O.[NH-]CC[NH-].[Pt+2]
T/C (dose: 3.12 mg/kg/injection, schedule: Q04DX002 (ip), vehicle: saline with Tween-80): 117 % of control

O=C1CC(c2ccccc2)=NO1
T/C (dose: 100.0 mg/kg/injection, schedule: Q04DX003 (ip), vehicle: Klucel (hydroxypropylcellulose) (HPC)): 94 % of control | T/C (dose: 200.0 mg/kg/injection, schedule: Q04DX003 (ip), vehicle: Klucel (hydroxypropylcellulose) (HPC)): 99 % of control | T/C (dose: 400.0 mg/kg/injection, schedule: Q04DX003 (ip), vehicle: Klucel (hydroxypropylcellulose) (HPC)): 100 % of control

Cc1nc2cc(N)c(Cl)cc2[nH]1
T/C [16]: 104 % of control | T/C [17]: 107 % of control

CC(=O)OCC1Cn2c(c(-c3ccccc3)c(=O)[nH]c2=S)O1 (stereo not drawn)
T/C [18]: 106 % of control | T/C [19]: 107 % of control | T/C [20]: 110 % of control

Cc1nn(C(=S)S)c(C)c1N=Nc1cccc(F)c1
T/C [5]: 117 % of control | T/C [6]: 111 % of control | T/C [7]: 106 % of control

Nc1nccc([N+](=O)[O-])n1
T/C [21]: 97 % of control | T/C [22]: 99 % of control | T/C [23]: 100 % of control

COc1cc(C)c(/C(=N/O)n2nnc(-c3ccc(C)cc3)n2)c(C)c1
T/C (dose: 100.0 mg/kg/injection, schedule: Q01DX001 (ip), vehicle: saline with Tween-80): 92 % of control | T/C (dose: 200.0 mg/kg/injection, schedule: Q01DX001 (ip), vehicle: saline with Tween-80): 91 % of control

S=C=NCCc1ccccc1
T/C [1]: 116 % of control | T/C (dose: 22.0 mg/kg/injection, schedule: Q01DX009 (ip), vehicle: saline with Tween-80): 115 % of control | T/C [15]: 114 % of control

[N-]=[N+]=NC12CC3CC(CC(C3)C1)C2
T/C [5]: 100 % of control | T/C [6]: 101 % of control | T/C [7]: 106 % of control

CCN(CC)CCNc1ccnc(F)n1
T/C (dose: 30.0 mg/kg/injection, schedule: Q01DX005 (ip), vehicle: saline with Tween-80): 101 % of control | T/C [16]: 103 % of control

COC(=O)c1ccccc1NC(=NC(C)(C)C)c1ccccc1
T/C [15]: 98 % of control | T/C [13]: 98 % of control | T/C [14]: 91 % of control

O=C1CSC(c2cccc(Cl)c2Cl)N1c1nncs1 (stereo not drawn)
T/C (dose: 100.0 mg/kg/injection, schedule: Q04DX002 (ip), vehicle: saline with Tween-80): 112 % of control | T/C (dose: 200.0 mg/kg/injection, schedule: Q04DX002 (ip), vehicle: saline with Tween-80): 94 % of control | T/C (dose: 400.0 mg/kg/injection, schedule: Q04DX002 (ip), vehicle: saline with Tween-80): 97 % of control

Nc1nc(N)nc(N)n1
T/C [13]: 106 % of control | T/C [14]: 107 % of control | T/C (dose: 400.0 mg/kg/injection, schedule: Q01DX009 (ip), vehicle: saline with Tween-80): 99 % of control | T/C (dose: 800.0 mg/kg/injection, schedule: Q01DX009 (ip), vehicle: saline with Tween-80): 96 % of control

COC(=O)C(C(C)=O)C(=O)c1cc([N+](=O)[O-])cc([N+](=O)[O-])c1 (stereo not drawn)
T/C [18]: 98 % of control | T/C [19]: 100 % of control | T/C [20]: 97 % of control

COc1ccc(-c2c(N3CCOCC3)oc3cc(N4CCOCC4)c(O)cc23)cc1
T/C (dose: 25.0 mg/kg/injection, schedule: Q01DX005 (ip), vehicle: saline with Tween-80): 100 % of control | T/C [5]: 98 % of control | T/C [6]: 100 % of control | T/C [7]: 91 % of control

CCCCCCCCCCCCCCCC[N+](C)(C)CC[S+](C)C
T/C (dose: 12.5 mg/kg/injection, schedule: Q01DX009 (ip), vehicle: water): 96 % of control | T/C (dose: 25.0 mg/kg/injection, schedule: Q01DX009 (ip), vehicle: water): 99 % of control | T/C (dose: 50.0 mg/kg/injection, schedule: Q01DX009 (ip), vehicle: water): 100 % of control

Nc1ncnc2c1ccn2CC(O)CO (stereo not drawn)
T/C (dose: 50.0 mg/kg/injection, schedule: Q01DX005 (ip), vehicle: distilled water + alcohol): 101 % of control | T/C (dose: 100.0 mg/kg/injection, schedule: Q01DX005 (ip), vehicle: distilled water + alcohol): 100 % of control | T/C (dose: 200.0 mg/kg/injection, schedule: Q01DX005 (ip), vehicle: distilled water + alcohol): 101 % of control

CS/C(=N/S(=O)(=O)c1ccccc1)NNC(=S)Nc1ccc(C(C)C)cc1
T/C [21]: 94 % of control | T/C [22]: 97 % of control | T/C [23]: 97 % of control

N#CC1=C2CCCCC2(O)NC1=O (stereo not drawn)
T/C [2]: 108 % of control | T/C [3]: 115 % of control

CCOc1cccc2c1C(=O)c1cccc(OCC)c1C2=O
T/C (dose: 100.0 mg/kg/injection, schedule: Q04DX003 (ip), vehicle: saline with Tween-80): 109 % of control | T/C (dose: 200.0 mg/kg/injection, schedule: Q04DX003 (ip), vehicle: saline with Tween-80): 104 % of control | T/C (dose: 400.0 mg/kg/injection, schedule: Q04DX003 (ip), vehicle: saline with Tween-80): 100 % of control

Clc1ccc(Cc2nc3ccccc3s2)cc1
T/C [16]: 106 % of control | T/C [17]: 121 % of control

CCC[CH2][Sn]([Cl])([CH2]CCC)[S]/C(C#N)=N/N=C/c1ccc(N(C)C)cc1
T/C (dose: 15.0 mg/kg/injection, schedule: Q01DX005 (ip), vehicle: saline with Tween-80): 106 % of control | T/C [16]: 122 % of control

Nc1cc(Cl)ccc1C(=O)c1ccccc1Cl
T/C [16]: 102 % of control | T/C [17]: 100 % of control | T/C (dose: 240.0 mg/kg/injection, schedule: Q01DX005 (ip), vehicle: saline with Tween-80): 93 % of control
